Assay: recombinant UMI read abundance after kanamycin selection (control-corrected) (log10(CPM+1)); higher = more efficient recombination; extreme values may be limits of the assay; sequences stand for … in AGTGCAGAGAAAATCGGCCAGTTTTCTCTGCCTGCAGTCCGCATGCCGTGGGACCCCTTGGGTTCTAACCTGTTGCCTAGATTTATGCAGCGGACTGCCTTTCTCCCAAAGTGATAAACCGG…AGGTTGGTTTCACT; site = the 11-nt donor
Procedure, shortened: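 For the IS621 bridge recombinase, a pooled Escherichia coli screen tested donor and donor-binding-loop pairs. Cells received the pair library together with a target plasmid encoding a fixed target and T7-inducible recombinase, then went onto IPTG (0.07 mM) plus kanamycin or unselected plates in duplicate. After PCR across the donor–target junction and sequencing, recombinant UMI counts were normalized to CPM, averaged, and scaled by control-derived factors. Each value is given as log10(CPM+1).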
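Note: IS621 bridge recombinase in Escherichia coli cells against a fixed T5 target plasmid.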

Sequence: CCCTAGCCATGGACCGGTTTTCCCGGTAATCCGTATTTGTC (site CCCTAGCCTGC)
- recombinant UMI read abundance (log10): 0

Sequence: CCCTAGCCATGGACCGGTTTTCCCGGTAATCCGTATTTGTC (site CCCTAGCCTGG)
- recombinant UMI read abundance (log10): 0

Sequence: CCCTAGCCATGGACCGGTTTTCCCGGTAATCCGTATTTGTC (site CCCTAGCCTGT)
- recombinant UMI read abundance (log10): 0

Sequence: CCCTATTCATGGACCGGTTTTCCCGGTAATCCGTATTTGGA (site CCCTATTCTTC)
- recombinant UMI read abundance (log10): 0.0708

Sequence: CCCTTATCATGGACCGGTTTTCCCGGTAATCCGTATTTGCA (site CCCTTATCTTG)
- recombinant UMI read abundance (log10): 2.15

Sequence: CCCTTATCATGGACCGGTTTTCCCGGTAATCCGTATTTGTC (site CCCATATCTGA)
- recombinant UMI read abundance (log10): 0

Sequence: CCCTTATCATGGACCGGTTTTCCCGGTAATCCGTATTTGTC (site CCCCTATCTGA)
- recombinant UMI read abundance (log10): 0

Sequence: CCCTTATCATGGACCGGTTTTCCCGGTAATCCGTATTTGTC (site CCCGTATCTGA)
- recombinant UMI read abundance (log10): 0

Sequence: CCCTTATCATGGACCGGTTTTCCCGGTAATCCGTATTTGTC (site CCCTTATCTGA)
- recombinant UMI read abundance (log10): 0.909

Sequence: CCCTTCTCATGGACCGGTTTTCCCGGTAATCCGTATTTGAG (site CCCTTCTCTCA)
- recombinant UMI read abundance (log10): 0.00351

Sequence: CCCTTCTCATGGACCGGTTTTCCCGGTAATCCGTATTTGAG (site CCCTTCTCTCC)
- recombinant UMI read abundance (log10): 0.00506

Sequence: CCCTTCTCATGGACCGGTTTTCCCGGTAATCCGTATTTGAG (site CCCTTCTCTCG)
- recombinant UMI read abundance (log10): 0.01

Sequence: CCCTTCTCATGGACCGGTTTTCCCGGTAATCCGTATTTGAG (site CCCTTCTCTCT)
- recombinant UMI read abundance (log10): 0.00554

Sequence: CCCTTCTCATGGACCGGTTTTCCCGGTAATCCGTATTTGCG (site CCCTTCTCTCA)
- recombinant UMI read abundance (log10): 0.02

Sequence: CCCTTCTCATGGACCGGTTTTCCCGGTAATCCGTATTTGCG (site CCCTTCTCTCC)
- recombinant UMI read abundance (log10): 0.195

Sequence: CCCTTCTCATGGACCGGTTTTCCCGGTAATCCGTATTTGCG (site CCCTTCTCTCG)
- recombinant UMI read abundance (log10): 1.08

Sequence: CCCTTCTCATGGACCGGTTTTCCCGGTAATCCGTATTTGCG (site CCCTTCTCTCT)
- recombinant UMI read abundance (log10): 0.061

Sequence: CCCTTCTCATGGACCGGTTTTCCCGGTAATCCGTATTTGGA (site CCCTTCTCTAC)
- recombinant UMI read abundance (log10): 0

Sequence: CCCTTCTCATGGACCGGTTTTCCCGGTAATCCGTATTTGGA (site CCCTTCTCTCC)
- recombinant UMI read abundance (log10): 0.0081

Sequence: CCCTTCTCATGGACCGGTTTTCCCGGTAATCCGTATTTGGA (site CCCTTCTCTGC)
- recombinant UMI read abundance (log10): 0

Sequence: CCCTTCTCATGGACCGGTTTTCCCGGTAATCCGTATTTGGA (site CCCTTCTCTTC)
- recombinant UMI read abundance (log10): 0.21

Sequence: CCCTTGCCATGGACCGGTTTTCCCGGTAATCCGTATTTGCC (site CCCTAGCCTGG)
- recombinant UMI read abundance (log10): 0

Sequence: CCCTTGCCATGGACCGGTTTTCCCGGTAATCCGTATTTGCC (site CCCTCGCCTGG)
- recombinant UMI read abundance (log10): 0

Sequence: CCCTTGCCATGGACCGGTTTTCCCGGTAATCCGTATTTGCC (site CCCTGGCCTGG)
- recombinant UMI read abundance (log10): 0

Sequence: CCCTTGCCATGGACCGGTTTTCCCGGTAATCCGTATTTGCC (site CCCTTGCCTGG)
- recombinant UMI read abundance (log10): 0

Sequence: CCCTTGTCATGGACCGGTTTTCCCGGTAATCCGTATTTGGG (site CCCTTATCTCC)
- recombinant UMI read abundance (log10): 0.393

Sequence: CCCTTGTCATGGACCGGTTTTCCCGGTAATCCGTATTTGGG (site CCCTTCTCTCC)
- recombinant UMI read abundance (log10): 0.00922

Sequence: CCCTTGTCATGGACCGGTTTTCCCGGTAATCCGTATTTGGG (site CCCTTGTCTCC)
- recombinant UMI read abundance (log10): 0.297

Sequence: CCCTTGTCATGGACCGGTTTTCCCGGTAATCCGTATTTGGG (site CCCTTTTCTCC)
- recombinant UMI read abundance (log10): 0.0116

Sequence: CCCTTTACATGGACCGGTTTTCCCGGTAATCCGTATTTGCT (site CCATTTACTAG)
- recombinant UMI read abundance (log10): 0

Sequence: CCCTTTACATGGACCGGTTTTCCCGGTAATCCGTATTTGCT (site CCCTTTACTAG)
- recombinant UMI read abundance (log10): 1.76

Sequence: CCCTTTACATGGACCGGTTTTCCCGGTAATCCGTATTTGCT (site CCGTTTACTAG)
- recombinant UMI read abundance (log10): 0

Sequence: CCCTTTACATGGACCGGTTTTCCCGGTAATCCGTATTTGCT (site CCTTTTACTAG)
- recombinant UMI read abundance (log10): 0

Sequence: CCGAAACCATGGACCGGTTTTCCCGGTAATCCGTATTTGTT (site CCGAAACCTAA)
- recombinant UMI read abundance (log10): 0

Sequence: CCGAAACCATGGACCGGTTTTCCCGGTAATCCGTATTTGTT (site CGGAATCCTAA)
- recombinant UMI read abundance (log10): 0.00312

Sequence: CCGAAGGCATGGACCGGTTTTCCCGGTAATCCGTATTTGTG (site CCGAAGGCTCA)
- recombinant UMI read abundance (log10): 0.495

Sequence: CCGAATACATGGACCGGTTTTCCCGGTAATCCGTATTTGGC (site CCAAATACTGC)
- recombinant UMI read abundance (log10): 0

Sequence: CCGAATACATGGACCGGTTTTCCCGGTAATCCGTATTTGGC (site CCCAATACTGC)
- recombinant UMI read abundance (log10): 0

Sequence: CCGAATACATGGACCGGTTTTCCCGGTAATCCGTATTTGGC (site CCGAATACTGC)
- recombinant UMI read abundance (log10): 0

Sequence: CCGAATACATGGACCGGTTTTCCCGGTAATCCGTATTTGGC (site CCTAATACTGC)
- recombinant UMI read abundance (log10): 0

Sequence: CCGACATCATGGACCGGTTTTCCCGGTAATCCGTATTTGCT (site CAGACATCTAG)
- recombinant UMI read abundance (log10): 0

Sequence: CCGACATCATGGACCGGTTTTCCCGGTAATCCGTATTTGCT (site CCGACATCTAG)
- recombinant UMI read abundance (log10): 0.421

Sequence: CCGACATCATGGACCGGTTTTCCCGGTAATCCGTATTTGCT (site CGGACATCTAG)
- recombinant UMI read abundance (log10): 0

Sequence: CCGACATCATGGACCGGTTTTCCCGGTAATCCGTATTTGCT (site CTGACATCTAG)
- recombinant UMI read abundance (log10): 0

Sequence: CCGACCTCATGGACCGGTTTTCCCGGTAATCCGTATTTGGT (site CCGACCTCTAC)
- recombinant UMI read abundance (log10): 0.121

Sequence: CCGATATCATGGACCGGTTTTCCCGGTAATCCGTATTTGTC (site CCAATATCTGA)
- recombinant UMI read abundance (log10): 0

Sequence: CCGATATCATGGACCGGTTTTCCCGGTAATCCGTATTTGTC (site CCCATATCTGA)
- recombinant UMI read abundance (log10): 0

Sequence: CCGATATCATGGACCGGTTTTCCCGGTAATCCGTATTTGTC (site CCGATATCTGA)
- recombinant UMI read abundance (log10): 1.21

Sequence: CCGATATCATGGACCGGTTTTCCCGGTAATCCGTATTTGTC (site CCTATATCTGA)
- recombinant UMI read abundance (log10): 0

Sequence: CCGATGCCATGGACCGGTTTTCCCGGTAATCCGTATTTGGA (site CCGATGCCTTC)
- recombinant UMI read abundance (log10): 0.0103

Sequence: CCGATTCCATGGACCGGTTTTCCCGGTAATCCGTATTTGTT (site CCGATTCCTAA)
- recombinant UMI read abundance (log10): 0

Sequence: CCGATTCCATGGACCGGTTTTCCCGGTAATCCGTATTTGTT (site CGGAATCCTAA)
- recombinant UMI read abundance (log10): 0.00507

Sequence: CCGCAGTCATGGACCGGTTTTCCCGGTAATCCGTATTTGGC (site CCGCAGTCTGC)
- recombinant UMI read abundance (log10): 0

Sequence: CCGCATACATGGACCGGTTTTCCCGGTAATCCGTATTTGTT (site CCGCATACTAA)
- recombinant UMI read abundance (log10): 0.39

Sequence: CCGGAAGCATGGACCGGTTTTCCCGGTAATCCGTATTTGAC (site CCGGAAGCTGT)
- recombinant UMI read abundance (log10): 0.161

Sequence: CCGGTAGCATGGACCGGTTTTCCCGGTAATCCGTATTTGAC (site CCGGTAGCTGT)
- recombinant UMI read abundance (log10): 2.38

Sequence: CCGGTATCATGGACCGGTTTTCCCGGTAATCCGTATTTGAC (site CCGGTATCTGT)
- recombinant UMI read abundance (log10): 1.45

Sequence: CCGGTATCATGGACCGGTTTTCCCGGTAATCCGTATTTGAC (site CTAGTATCTGT)
- recombinant UMI read abundance (log10): 0

Sequence: CCGGTGGCATGGACCGGTTTTCCCGGTAATCCGTATTTGAC (site CCGGTGGCTGT)
- recombinant UMI read abundance (log10): 1.58

Sequence: CCGTCAGCATGGACCGGTTTTCCCGGTAATCCGTATTTGTG (site CCGTAAGCTCA)
- recombinant UMI read abundance (log10): 0

Sequence: CCGTCAGCATGGACCGGTTTTCCCGGTAATCCGTATTTGTG (site CCGTCAGCTCA)
- recombinant UMI read abundance (log10): 0.00531

Sequence: CCGTCAGCATGGACCGGTTTTCCCGGTAATCCGTATTTGTG (site CCGTGAGCTCA)
- recombinant UMI read abundance (log10): 0.00599

Sequence: CCGTCAGCATGGACCGGTTTTCCCGGTAATCCGTATTTGTG (site CCGTTAGCTCA)
- recombinant UMI read abundance (log10): 0.00541

Sequence: CCGTCATCATGGACCGGTTTTCCCGGTAATCCGTATTTGCT (site CCGTCATCTAG)
- recombinant UMI read abundance (log10): 0

Sequence: CCGTCATCATGGACCGGTTTTCCCGGTAATCCGTATTTGCT (site CGATCATCTAG)
- recombinant UMI read abundance (log10): 0.00968

Sequence: CCGTCGCCATGGACCGGTTTTCCCGGTAATCCGTATTTGAT (site CCGTCGCCTAT)
- recombinant UMI read abundance (log10): 0.00407

Sequence: CCGTCGGCATGGACCGGTTTTCCCGGTAATCCGTATTTGTG (site CCGTCGGCTCA)
- recombinant UMI read abundance (log10): 0.0197

Sequence: CCGTGAGCATGGACCGGTTTTCCCGGTAATCCGTATTTGTG (site CCGTAAGCTCA)
- recombinant UMI read abundance (log10): 0.0763

Sequence: CCGTGAGCATGGACCGGTTTTCCCGGTAATCCGTATTTGTG (site CCGTCAGCTCA)
- recombinant UMI read abundance (log10): 0

Sequence: CCGTGAGCATGGACCGGTTTTCCCGGTAATCCGTATTTGTG (site CCGTGAGCTCA)
- recombinant UMI read abundance (log10): 0.568

Sequence: CCGTGAGCATGGACCGGTTTTCCCGGTAATCCGTATTTGTG (site CCGTTAGCTCA)
- recombinant UMI read abundance (log10): 0.00536

Sequence: CCGTTAGCATGGACCGGTTTTCCCGGTAATCCGTATTTGTG (site ACGTTAGCTCA)
- recombinant UMI read abundance (log10): 0.0114

Sequence: CCGTTAGCATGGACCGGTTTTCCCGGTAATCCGTATTTGTG (site CAGTTAGCTCA)
- recombinant UMI read abundance (log10): 0.00951

Sequence: CCGTTAGCATGGACCGGTTTTCCCGGTAATCCGTATTTGTG (site CCATTAGCTCA)
- recombinant UMI read abundance (log10): 0.434

Sequence: CCGTTAGCATGGACCGGTTTTCCCGGTAATCCGTATTTGTG (site CCCTTAGCTCA)
- recombinant UMI read abundance (log10): 0.0161

From the supplement of paper PMC11208160
